Experimental data as given in ChEMBL document CHEMBL1155252 (Bioorg Med Chem, 2009).

How the values were obtained:
[1] = target: 3',5'-cyclic-AMP phosphodiesterase 4B (Homo sapiens, UniProt Q07343); assay: Inhibition of PDE4B by luciferase-coupled assay
[2] = target: 3',5'-cyclic-AMP phosphodiesterase 4D (Homo sapiens, UniProt Q08499); assay: Inhibition of PDE4D by luciferase-coupled assay
[3] = Selectivity for PDE4B over PDE4D
[4] = Inhibition of bovine PDE3 by scintillation proximity assay; parameters: species or system Bos taurus
[5] = target: cGMP-specific 3',5'-cyclic phosphodiesterase (Homo sapiens, UniProt O76074); assay: Inhibition of human PDE5 by scintillation proximity assay

3',5'-cyclic-AMP phosphodiesterase 4D, sequence (Q08499 whole entry): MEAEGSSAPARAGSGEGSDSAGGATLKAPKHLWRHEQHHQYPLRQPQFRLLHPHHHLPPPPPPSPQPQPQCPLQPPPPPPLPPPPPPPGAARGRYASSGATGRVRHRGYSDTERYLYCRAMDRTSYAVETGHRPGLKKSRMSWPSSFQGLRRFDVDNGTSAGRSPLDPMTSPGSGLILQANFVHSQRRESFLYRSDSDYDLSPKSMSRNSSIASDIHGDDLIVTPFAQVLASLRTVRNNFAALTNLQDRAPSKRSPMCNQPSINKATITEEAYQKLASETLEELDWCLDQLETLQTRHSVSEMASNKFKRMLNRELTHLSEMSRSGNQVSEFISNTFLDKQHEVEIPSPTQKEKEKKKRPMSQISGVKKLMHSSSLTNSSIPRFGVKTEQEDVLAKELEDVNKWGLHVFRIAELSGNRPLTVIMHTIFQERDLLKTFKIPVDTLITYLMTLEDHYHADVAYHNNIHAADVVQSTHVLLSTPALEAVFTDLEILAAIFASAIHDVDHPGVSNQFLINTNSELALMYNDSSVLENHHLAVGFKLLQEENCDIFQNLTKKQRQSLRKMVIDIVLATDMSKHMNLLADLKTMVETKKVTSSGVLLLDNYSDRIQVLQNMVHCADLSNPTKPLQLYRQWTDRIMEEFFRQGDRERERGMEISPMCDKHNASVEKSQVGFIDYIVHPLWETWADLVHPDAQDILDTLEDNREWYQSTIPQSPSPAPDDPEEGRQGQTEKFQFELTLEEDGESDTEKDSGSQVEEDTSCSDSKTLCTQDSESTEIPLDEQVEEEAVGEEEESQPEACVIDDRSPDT
3',5'-cyclic-AMP phosphodiesterase 4B, sequence (Q07343 whole entry): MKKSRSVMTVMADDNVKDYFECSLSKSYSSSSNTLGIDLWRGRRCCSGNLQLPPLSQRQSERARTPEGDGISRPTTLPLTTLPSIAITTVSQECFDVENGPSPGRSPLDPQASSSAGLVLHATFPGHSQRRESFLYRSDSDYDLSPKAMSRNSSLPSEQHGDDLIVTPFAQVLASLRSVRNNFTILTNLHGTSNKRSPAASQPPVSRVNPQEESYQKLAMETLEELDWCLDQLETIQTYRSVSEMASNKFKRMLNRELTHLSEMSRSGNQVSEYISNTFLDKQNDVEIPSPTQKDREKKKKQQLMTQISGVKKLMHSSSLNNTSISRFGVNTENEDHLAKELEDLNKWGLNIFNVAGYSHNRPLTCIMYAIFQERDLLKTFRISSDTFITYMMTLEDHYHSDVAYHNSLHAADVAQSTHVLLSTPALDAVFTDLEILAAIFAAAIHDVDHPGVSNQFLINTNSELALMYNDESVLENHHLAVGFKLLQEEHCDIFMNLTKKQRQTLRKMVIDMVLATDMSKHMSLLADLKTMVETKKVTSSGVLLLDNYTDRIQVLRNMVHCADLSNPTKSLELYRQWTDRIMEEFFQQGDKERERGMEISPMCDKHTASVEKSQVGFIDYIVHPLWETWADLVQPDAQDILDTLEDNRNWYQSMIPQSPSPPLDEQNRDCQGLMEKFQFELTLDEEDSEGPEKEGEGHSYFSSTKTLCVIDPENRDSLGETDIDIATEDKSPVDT

SMILES	IC50 [1] [nM]	IC50 [2] [nM]	Selectivity Index [3]	pIC50 [4]	IC50 [5] [nM]
CC1CCCc2sc(NC(=O)c3ccccc3[N+](=O)[O-])c(C(N)=O)c21 (stereo unspecified)	5010	31600			
NC(=O)c1c(NC(=O)c2ccccc2[N+](=O)[O-])sc2c1CCC(c1ccccc1)C2 (stereo unspecified)	398	1580			
Cc1cccc(C)c1C1CCCc2sc(NC(=O)c3ccccc3[N+](=O)[O-])c(C(N)=O)c21 (stereo unspecified)	5010	2510			
CC1CCc2sc(NC(=O)c3ccccc3[N+](=O)[O-])c(C(N)=O)c2C1 (stereo unspecified)	2000	6310			
CCCCCC1CCc2c(sc(NC(=O)c3ccccc3[N+](=O)[O-])c2C(N)=O)C1 (stereo unspecified)	100	2510			
CC1(C)CCc2c(sc(NC(=O)c3ccccc3[N+](=O)[O-])c2C(N)=O)C1	50.1	398			
NC(=O)c1c(NC(=O)c2ccccc2[N+](=O)[O-])sc2c1CCCC2	1260	6310			

Now from value to compound:

IC50 [1] [nM]	IC50 [2] [nM]	Selectivity Index [3]	pIC50 [4]	IC50 [5] [nM]	SMILES
> 2510	> 2510				CC1CCc2c(sc(NC(=O)c3ccc([N+](=O)[O-])cc3)c2C(N)=O)C1 (stereo unspecified)
631	> 2510				CC1CCc2c(sc(NC(=O)c3cccc([N+](=O)[O-])c3)c2C(N)=O)C1 (stereo unspecified)
10	126	10			CCC1CCc2c(sc(NC(=O)c3ccccc3[N+](=O)[O-])c2C(N)=O)C1 (stereo unspecified)
79.4					CC(C)(C)C1CCc2c(sc(NC(=O)c3c(F)cccc3F)c2C(N)=O)C1 (stereo unspecified)
> 10000					CNC(=O)c1c(NC(=O)c2c(F)cccc2F)sc2c1CCC(C(C)(C)C)C2 (stereo unspecified)
1260	6310				CC(C)(C)C1CCc2sc(NC(=O)c3ccccc3[N+](=O)[O-])c(C(N)=O)c2C1 (stereo unspecified)
25.1	126				CC(C)(C)C1CCc2c(sc(NC(=O)c3ccccc3[N+](=O)[O-])c2C(N)=O)C1 (stereo unspecified)
200	316		< 5	> 10000	CC(C)(C)C1CCc2c(sc(NC(=O)c3ccncc3)c2C(N)=O)C1 (stereo unspecified)
